“And” between values parts separate entries of the source, which are not always exact repeats. Equal entries are not always repeated. Where two headings read alike, the source gives them in different places.
Tests used:
M. tuberculosis H37Ra = assay: microbe, parasite or virus in culture; assay type: cell-based, Mycobacterium tuberculosis
M. tuberculosis H37Rv = assay: microbe, parasite or virus in culture; assay type: cell-based; conditions: Mycobacterium tuberculosis
[1] = Cytotoxicity, resazurin cell viability assay; assay type: cell-based, human; conditions: human, SH-SY5Y neuroblastoma cells; SH-SY5Y cells, 48 h; mean ± SEM
Description: (§1) Cell viability was assayed by using Resazurin (SERVA Electrophoresis GmbH, Heidelberg, Germany). This cell-permeable dye is reduced by aerobic respiration of metabolically active cells to resorufin, whose fluorescence is proportional to the number of live cells. The stock solution of resazurin sodium salt (440 μM, 10×) was resuspended in Phosphate Buffered Saline (PBS) and stored at −20 °C. Working solution (44 μM) was prepared on the same day of each assay by diluting resazurin stock solution in a standard culture medium. The human neuroblastoma cell line SH-SY5Y was used to test the cytotoxicity of five selected compounds (1h, and 1k–n). The cells were maintained in Dulbecco’s modified Eagle’s medium (DMEM; Gibco, Life Technologies Inc., Frederick, MD, USA) supplemented with 10% (v/v) fetal bovine serum (FBS) and Antibiotic Antimycotic Solution (100 U penicillin, 100 μg/mL streptomycin and 0.25 μg/mL amphotericin B; Sigma-Aldrich, St. Louis, MO, USA) at 37 °C in a humidified incubator with a 5% CO2/95% air atmosphere.
(§2) In the cytotoxicity tests, SH-SY5Y cells were seeded at a density of 5 × 10^3 cells/well in a 96-well plate and grown for another 24 h. Cells were then treated in triplicate with serial dilutions (100 μM, 50 μM, 25 μM, 12.5 μM, 6.25 μM, 3.125 μM) of selected compounds. After 48 h, the culture medium in each well was replaced with 100 μL of Resazurin working solution (44 μM). The fluorescent signal of the resorufin was monitored with Excitation λ = 530 nm and Emission λ = 590 nm by using an Envision 2104 Multi-label Microplate Reader (Perkin Elmer, Boston, MA, USA). Measurements were performed at time 0 and after 1 h of incubation. The percentage of viability was calculated after subtraction of the background (obtained by killing the cells), on the basis of the ratio between the fluorescence values of the cells incubated with a compound and the fluorescence values of cells incubated with the solvent (1% DMSO). The viability of cells incubated with 1% DMSO was considered to be equivalent to 100%. The statistical analysis was carried out with GraphPad Prism 6 (GraphPad Software, Inc., La Jolla, CA, USA) software using an unpaired t-test, and a p-value < 0.05 was considered statistically significant. Cytotoxicity (CC50) was determined from dose-response curves analyzed by using GraphPad Prism software.

SH-SY5Y cells = assay: Cytotoxicity, resazurin cell viability assay; assay type: cell-based, human; conditions: for Cytotoxicity (in words): SH-SY5Y cells, tested concentrations up to 100 μM; for Viability (%) vs DMSO: SH-SY5Y, 48 h, average ± SEM
Description: as §1, §2

[2] = Mycobacterium tuberculosis, H37RA

| SMILES | melting point [°C] | MIC (M. tuberculosis H37Ra; [2]) | MIC (M. tuberculosis H37Rv) [µg/mL] | MIC (M. tuberculosis H37Ra) | MIC (M. tuberculosis H37Rv; […], value in brackets) [µM] | CC50 at 48 h [1] [µM] | Cytotoxicity (in words) (SH-SY5Y cells) | Viability (%) vs DMSO (SH-SY5Y cells; 3.125 µM) [%] | Viability (%) vs DMSO (SH-SY5Y cells; 6.25 µM) [%] | Viability (%) vs DMSO (SH-SY5Y cells; 12.5 µM) [%] | Viability (%) vs DMSO (SH-SY5Y cells; 25 µM) [%] | Viability (%) vs DMSO (SH-SY5Y cells; 50 µM) [%] | Viability (%) vs DMSO (SH-SY5Y cells; 100 µM) [%] |
| --- | --- | --- | --- | --- | --- | --- | --- | --- | --- | --- | --- | --- | --- |
| Cc1ccc(C=NNC(=O)c2nnc(-c3ccccc3)o2)cc1 (mixture of isomers) [1j, (E/Z)-N’-(4-methylbenzyliden)-5-phenyl-1,3,4-oxadiazol-2-carbohydrazide] | 200 to 202 | 16 µg/mL and 52.2 µM | > 64 |  |  |  |  |  |  |  |  |  |  |
| O=C(N/N=C\c1ccccc1)c1nnc(-c2ccncc2)o1 [1a, (Z)-N’-benzyliden-5-(pyridin-4-yl)-1,3,4-oxadiazol-2-carbohydrazide] | 207 to 209 | 64 µg/mL and 218 µM | > 64 |  |  |  |  |  |  |  |  |  |  |
| O=C(N/N=C\c1ccc(Cl)cc1)c1nnc(-c2ccncc2)o1 [1b, (Z)-N’-(4-chlorobenzyliden)-5-(pyridin-4-yl)-1,3,4-oxadiazol-2-carbohydrazide] |  | > 64 µg/mL | > 64 | >64 (-) μg/mL |  |  |  |  |  |  |  |  |  |
| Cc1ccc(/C=N\NC(=O)c2nnc(-c3ccncc3)o2)cc1 [1c, (Z)-N’-(4-methylbenzyliden)-5-(pyridin-4-yl)-1,3,4-oxadiazol-2-carbohydrazide] |  | 64 µg/mL and 195 µM | > 64 |  |  |  |  |  |  |  |  |  |  |
| O=C(N/N=C\c1ccc[nH]1)c1nnc(-c2ccncc2)o1 [1d, (Z)-N’-((1H-pyrrol-2-yl)methylen)-5-(pyridin-4-yl)-1,3,4-oxadiazol-2-carbohydrazide] |  | 64 µg/mL and 226 µM | > 64 |  |  |  |  |  |  |  |  |  |  |
| O=C(N/N=C\c1ccccn1)c1nnc(-c2ccncc2)o1 [1e, (Z)-N’-(pyridin-2-ylmethylen)-5-(pyridin-4-yl)-1,3,4-oxadiazol-2-carbohydrazide] | 255 to 259 | 32 µg/mL and 108 µM | 16 |  | 54 |  |  |  |  |  |  |  |  |
| O=C(N/N=C\c1ccncc1)c1nnc(-c2ccncc2)o1 [1f, (Z)-5-(pyridin-4-yl)-N’-(pyridin-4-ylmethylen)-1,3,4-oxadiazol-2-carbohydrazide] |  | 64 µg/mL and 217 µM | > 64 |  |  |  |  |  |  |  |  |  |  |
| O=C(N/N=C\c1ccco1)c1nnc(-c2ccncc2)o1 [1g, (Z)-N’-(furan-2-ylmethylen)-5-(pyridin-4-yl)-1,3,4-oxadiazol-2-carbohydrazide] | 236 to 242 | 64 µg/mL and 226 µM | > 64 |  |  |  |  |  |  |  |  |  |  |
| O=C(N/N=C\c1ccccc1)c1nnc(-c2ccccc2)o1 [1h, (Z)-N’-benzyliden-5-phenyl-1,3,4-oxadiazol-2-carbohydrazide] | 194 to 196 | 8 µg/mL and 27.4 µM | > 64 |  |  | > 100 | no cytotoxicity at tested concentrations | 100 ± 13 | 99 ± 13 | 99 ± 11 | 99 ± 15 | 100 ± 14 | 97 ± 12 |
| O=C(N/N=C\c1ccc(Cl)cc1)c1nnc(-c2ccccc2)o1 [1i, (Z)-N’-(4-chlorobenzyliden)-5-phenyl-1,3,4-oxadiazol-2-carbohydrazide] | 243 to 245 | 16 µg/mL and 48.9 µM | > 64 |  |  |  |  |  |  |  |  |  |  |
| O=C(N/N=C\c1ccc[nH]1)c1nnc(-c2ccccc2)o1 [1k, (Z)-N’-((1H-pyrrol-2-yl)methylen)-5-phenyl-1,3,4-oxadiazol-2-carbohydrazide] | 185 to 187 | 8 µg/mL and 28.3 µM | 8 |  | 28.3 | 50 ± 6 |  | 100 ± 13 | 100 ± 13 | 101 ± 14 | 81 ± 12 | 49 ± 7 | 37 ± 6 |
| O=C(N/N=C\c1ccccn1)c1nnc(-c2ccccc2)o1 [1l, (Z)-5-phenyl-N’-(pyridin-2-ylmethylen)-1,3,4-oxadiazol-2-carbohydrazide] | 242 to 243 | 8 µg/mL and 27.4 µM | 8 |  | 27.1 | 100 ± 12 |  | 100 ± 12 | 100 ± 12 | 98 ± 13 | 93 ± 13 | 70 ± 10 | 49 ± 7 |
| O=C(N/N=C\c1ccncc1)c1nnc(-c2ccccc2)o1 [1m, (Z)-5-phenyl-N’-(pyridin-4-ylmethylen)-1,3,4-oxadiazol-2-carbohydrazide] | 243 to 245 | 8 µg/mL and 27.4 µM | > 64 |  |  | 128 ± 16 |  | 100 ± 14 | 100 ± 14 | 98 ± 16 | 96 ± 14 | 87 ± 11 | 61 ± 9 |
| O=C(N/N=C\c1ccco1)c1nnc(-c2ccccc2)o1 [1n, (Z)-N’-(furan-2-ylmethylen)-5-phenyl-1,3,4-oxadiazol-2-carbohydrazide] | 221 to 223 | 8 µg/mL and 28.3 µM | 16 |  | 56.6 | > 100 | no cytotoxicity at tested concentrations | 100 ± 11 | 100 ± 11 | 99 ± 15 | 100 ± 12 | 100 ± 13 | 97 ± 11 |
| NNC(=O)c1ccncc1 [INH, Isoniazid, reference compound] |  | 0.25 µg/mL and 1.8 µM | 0.25 |  | 1.8 |  |  |  |  |  |  |  |  |
| CO[C@H]1/C=C/O[C@@]2(C)Oc3c(C)c(O)c4c(O)c(c(/C=N/N5CCN(C)CC5)c(O)c4c3C2=O)NC(=O)/C(C)=C\C=C\[C@H](C)[C@H](O)[C@@H](C)[C@@H](O)[C@@H](C)[C@H](OC(C)=O)[C@@H]1C [RIF, reference compound] |  |  | 0.5 |  | 0.6 |  |  |  |  |  |  |  |  |

— publication PMC9735621, “Synthesis, Biological Evaluation and Computational Studies of New Hydrazide Derivatives Containing 1,3,4-Oxadiazole as Antitubercular Agents” (International Journal of Molecular Sciences, 2022)
